Measurements as given in patent US12150972B1, “Egg white protein anti-inflammatory peptide and application thereof” (Hangzhou BIBAU Biotechnology Co., Ltd., priority 2023, dated 2024).
Peptide text beside a SMILES is read from it.

Assays:
[1] = in vitro; settings: mouse, RAW264.7 macrophage cells induced by LPS, cell viability
Experimental: The cell viability of RAW264.7 cells was determined by MTT method. RAW264.7 cells in the logarithmic growth phase were seeded in a 96-well plate at 100 μL/well with a density of 4×10^4/well. The outermost layer of the 96-well plate was sealed by PBS solution, and the 96-well plate was transferred to an incubator for culturing for 12 to 24 hours. The incubator temperature was 37° C. and the CO2 concentration was 5%. After the cells adhered to the wall, the waste supernatant was extracted from the 96-well plate. A blank group (added with 100 μL of culture medium), an LPS group (added with 100 μL of LPS with a final mass concentration of 1 μg/mL), and a sample group (added with 100 μL of peptides with different or the same mass concentration and added with LPS with a final mass concentration of 1 μg/mL after 2 hours of reaction) were set, and each group was performed in triplicate. After culturing for 24 hours, 20 μL of MTT solution with a concentration of 5 mg/mL was added into each well. After continuing to culture in the incubator for 4 hours, 100 μL of dimethyl sulfoxide (DMSO) was added and shaken gently for 10 min. The absorbance value at 570 nm was measured with a microplate reader, and the cell viability (%) was calculated according to the formula (1).
In the formula (1), V refers to the cell viability (%), A1 is the absorbance value of the blank group at 570 nm, and A2 is the absorbance value of the sample group at 570 nm.

[2] = tested on: IL-6 secretion in RAW264.7 cells induced by LPS; experiment: IL-6 secretion in LPS-induced RAW264.7 cells (ELISA); assay type: cell-based, mouse; settings: RAW264.7 induced by LPS; sample 500 μg/mL
Experimental: (§1) The three groups were cultured in the incubator for 24 hours, and the supernatants were collected. According to the instructions of the ELISA kit, the absorbance value at 450 nm was measured and the secretion amounts of inflammatory factors TNF-α, IL-6 and IL-1β were calculated. The inhibition ratios of the three inflammatory factors were calculated by formula (3).
(§2) In the formula, C refers to the inhibition ratio (%) of inflammatory factors, Co is the secretion amount of inflammatory factors in the blank group, C1 is the secretion amount of inflammatory factors in the LPS group, and C2 is the secretion amount of inflammatory factors in the sample group.

[3] = tested on: NO production in RAW264.7 cells induced by LPS; experiment: NO production amount in LPS-induced RAW264.7 cells (Griess method); assay type: cell-based, mouse; settings: for NO production amount: RAW264.7 induced by LPS 1 μg/mL
Experimental: The NO production amount in the cell was measured by Griess method. The grouping, treatment and culture methods were the same as 1.2. After 24 hours of culture, the supernatant was collected and the NO production amount was measured using a NO detection kit. 50 μL of cell supernatant, 50 μL of Griess I reagent, and 50 μL of Griess II reagent were mixed, and stood for 5 minutes, and then the absorbance value at 540 nm was measured. According to the instructions of the NO kit, the NO production amount in each sample was calculated, and the inhibition ratio of NO production amount is calculated by formula (2).
In the formula, B refers to the NO inhibition ratio (%), B0 is the NO production amount of the blank group, B1 is the NO production amount of the LPS group, and B2 is the NO production amount of the sample group.

[4] = tested on: IL-1β secretion in RAW264.7 cells induced by LPS; experiment: IL-1β secretion in LPS-induced RAW264.7 cells (ELISA); assay type: cell-based, mouse; settings: RAW264.7 induced by LPS; sample 500 μg/mL
Experimental: as §1, §2

[5] = tested on: TNF-α secretion in RAW264.7 cells induced by LPS; experiment: TNF-α secretion in LPS-induced RAW264.7 cells (ELISA); assay type: cell-based, mouse; settings: RAW264.7 induced by LPS; sample 500 μg/mL
Experimental: as §1, §2

With `N[C@@H](Cc1ccccc1)C(=O)NCC(=O)N1CCC[C@H]1C(=O)N[C@@H](Cc1c[nH]cn1)C(=O)O` [FGPH, Phe-Gly-Pro-His] (H-FGPH-OH) the viability at 24 h, 125 µg/mL [1] was > 109%, the viability at 24 h, 250 µg/mL [1] was > 109% and the viability at 24 h, 500 µg/mL [1] was > 109%. The viability at 24 h, 1000 µg/mL [1] was < 97%, the “inhibition ratio of IL-6 secretion” value [2] was 41.72±1.83% and the NO production amount ([3]; sample 125 μg/mL) was 18.07 ± 0.31 µM. For the same compound, the NO production amount ([3]; sample 250 μg/mL) was 16.23 ± 0.31 µM, the NO production amount ([3]; sample 500 μg/mL) was 13.82 ± 0.31 µM and the “inhibition ratio of NO production amount” value ([3]; RAW264.7 induced by LPS, sample 500 μg/mL) was 64.41±0.47%. For the same compound, the “inhibition ratio of IL-1β secretion” value [4] was 52.43±2.29% and the “inhibition ratio of TNF-α secretion” value [5] was 28.07±2.10%.
